Experimental data published in publication PMC2760346 (Bioorganic & medicinal chemistry, 2009).
pEC50: −log10 of the molar value. Values belong to the molecule of their own block, whether it stands above or below them.

Assays:
[1] = test system: rat P2Y14 receptor; conditions: cited from earlier work
[2] = target: T1, human P2Y14 receptor (Homo sapiens, UniProt Q15391); conditions: cited from earlier work
T1 sequence (Q15391 1-338): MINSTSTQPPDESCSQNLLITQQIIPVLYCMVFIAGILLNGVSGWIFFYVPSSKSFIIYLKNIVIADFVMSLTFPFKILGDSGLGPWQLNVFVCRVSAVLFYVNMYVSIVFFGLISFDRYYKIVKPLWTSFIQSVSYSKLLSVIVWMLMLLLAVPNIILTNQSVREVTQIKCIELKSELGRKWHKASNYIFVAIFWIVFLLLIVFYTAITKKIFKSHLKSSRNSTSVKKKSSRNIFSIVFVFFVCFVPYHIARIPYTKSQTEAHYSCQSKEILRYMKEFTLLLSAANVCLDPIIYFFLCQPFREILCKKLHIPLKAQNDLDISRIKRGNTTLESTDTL

[3] = target: T1, human P2Y14 receptor; assay: Stimulation of PLC; type: cell-based; conditions: for fold less potent than 1 at the P2Y14 receptor: relative to 1; for activation of the P2Y14 receptor, % of full activation: at 10 μM
[4] = target: human P2Y2 receptor (Homo sapiens, UniProt P41231); type: cell-based; conditions: at concentrations up to 10 μM
Sequence of human P2Y2 receptor (P41231 whole entry): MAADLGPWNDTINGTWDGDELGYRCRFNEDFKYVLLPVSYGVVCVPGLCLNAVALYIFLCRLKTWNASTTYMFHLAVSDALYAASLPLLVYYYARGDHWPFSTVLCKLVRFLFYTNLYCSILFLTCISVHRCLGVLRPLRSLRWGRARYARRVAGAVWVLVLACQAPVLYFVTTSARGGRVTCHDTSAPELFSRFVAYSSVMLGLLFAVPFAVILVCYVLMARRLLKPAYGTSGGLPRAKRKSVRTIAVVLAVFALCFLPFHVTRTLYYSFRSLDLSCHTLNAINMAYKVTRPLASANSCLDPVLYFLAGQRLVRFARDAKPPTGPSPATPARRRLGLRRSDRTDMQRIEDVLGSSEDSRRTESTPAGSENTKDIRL

- fold less potent than 1 at the P2Y14 receptor [3]: 2 fold
Structure (SMILES): O=c1ccn([C@@H]2O[C@H](COP(=O)(O)OP(=O)(O)O[C@H]3O[C@H](CO)[C@@H](F)[C@H](O)[C@H]3O)[C@@H](O)[C@H]2O)c(=O)[nH]1 [Compound 13, UDP-4″-F-[1″]4″-deoxy glucose]

- activity at the human P2Y2 receptor (activation of PLC) [4]: inactive
Structure (SMILES): O=c1ccn([C@@H]2O[C@H](COP(=O)(O)OP(=O)(O)O[C@H]3O[C@H](CO)[C@@H](O)[C@H](F)[C@H]3O)[C@@H](O)[C@H]2O)c(=O)[nH]1 [Compound 12, UDP-3″-F-[1″]3″-deoxy glucose]

- fold less potent than 1 at the P2Y14 receptor [3]: 9.6 fold
Structure (SMILES): O=c1ccn([C@@H]2O[C@H](COP(=O)(O)OP(=O)(O)O[C@H]3O[C@H](CO)[C@@H](O)[C@H](O)[C@H]3F)[C@@H](O)[C@H]2O)c(=O)[nH]1 [Compound 11, UDP-2″-F-[1″]2″-deoxy glucose]

- fold less potent than 1 at the P2Y14 receptor [3]: 3.5 fold
Structure (SMILES): O=c1ccn([C@@H]2O[C@H](COP(=O)(O)OP(=O)(O)O[C@H]3O[C@H](CF)[C@@H](O)[C@H](O)[C@H]3O)[C@@H](O)[C@H]2O)c(=O)[nH]1 [Compound 14, UDP-6″-F-[1″]6″-deoxy glucose]

- fold decrease in P2Y14 potency on inversion of the 2″-hydroxyl configuration ([3]; relative to 21): 2 fold
Structure (SMILES): O=c1ccn([C@@H]2O[C@H](COP(=O)(O)OP(=O)(O)OC[C@H]3O[C@H](O)[C@@H](O)[C@@H]3O)[C@@H](O)[C@H]2O)c(=O)[nH]1 [Compound 22, Up2-[5″]arabinose]

- activity at the human P2Y2 receptor (activation of PLC) [4]: inactive
Structure (SMILES): O=c1ccn([C@@H]2O[C@H](COP(=O)(O)OP(=O)(O)OC[C@H]3O[C@](O)(CO)[C@@H](O)[C@@H]3O)[C@@H](O)[C@H]2O)c(=O)[nH]1 [Compound 24, Up2-[6″]fructose]

- activation of the P2Y14 receptor, % of full activation [3]: less than 50%
Structure (SMILES): O=c1ccn([C@@H]2O[C@H](COP(=O)(O)OP(=O)(O)OC[C@H]3O[C@H](O)C[C@@H](O)[C@@H]3O)[C@@H](O)[C@H]2O)c(=O)[nH]1 [Compound 20, Up2-[6″]2″-deoxyglucose]

The remaining lines, values behind:

Structure (SMILES): O=c1ccn([C@@H]2O[C@H](COP(=O)(O)OP(=O)(O)O)[C@@H](O)[C@H]2O)c(=O)[nH]1 [UDP, Uridine 5′-diphosphate]
- type of activity at the rat P2Y14 receptor [1]: potent agonist
- type of activity at the human P2Y14 receptor [2]: partial agonist/competitive antagonist

Structure (SMILES): CC(C)(C)OC(=O)NCCNC(=O)[C@H]1O[C@H](OP(=O)(O)OP(=O)(O)OC[C@H]2O[C@@H](n3ccc(=O)[nH]c3=O)[C@H](O)[C@@H]2O)[C@H](O)[C@@H](O)[C@@H]1O [Compound 17b, Diphosphoric Acid 1″-α-D-[1″] (Glucuronic acid-N-(2-t-butyloxycarbonylethyl amide))pyranosyl Ester 2-(uridin-5′-yl)ester]
- efficacy at the P2Y14 receptor [3]: fully activate

Structure (SMILES): CO/N=c1/ccn([C@@H]2O[C@H](COP(=O)(O)OP(=O)(O)O[C@H]3O[C@H](CO)[C@@H](O)[C@H](O)[C@H]3O)[C@@H](O)[C@H]2O)c(=O)[nH]1 [Compound 4, Diphosphoric Acid 1″-α-D-[1″]Glucopyranosyl Ester 2-((N^4-methoxy)cytidin-5′-yl)ester]
- agonist activity at the P2Y14 receptor [3]: only weakly active

Structure (SMILES): CC(=O)NCCNC(=O)[C@H]1O[C@H](OP(=O)(O)OP(=O)(O)OC[C@H]2O[C@@H](n3ccc(=O)[nH]c3=O)[C@H](O)[C@@H]2O)[C@H](O)[C@@H](O)[C@@H]1O [Compound 17a, Diphosphoric Acid 1″-α-D-[1″](Glucuronic acid-N-(2-acetylethyl amide))pyranosyl Ester 2-(uridin-5′-yl)ester]
- efficacy at the P2Y14 receptor [3]: fully activate
- activity at the human P2Y2 receptor (activation of PLC) [4]: inactive

Structure (SMILES): NCCNC(=O)[C@H]1O[C@H](OP(=O)(O)OP(=O)(O)OC[C@H]2O[C@@H](n3ccc(=O)[nH]c3=O)[C@H](O)[C@@H]2O)[C@H](O)[C@@H](O)[C@@H]1O [Compound 16, Diphosphoric Acid 1″-α-D-[1″](Glucuronic acid-N-(2-amino-ethyl amide))pyranosyl Ester 2-(uridin-5′-yl)ester]
- efficacy at the P2Y14 receptor [3]: fully activated the receptor

Structure (SMILES): O=c1ccn(C2CC(O)C(COP(=O)(O)OP(=O)(O)OC3OC(CO)C(O)C(O)C3O)O2)c(=O)[nH]1 (stereo not shown) [2′-deoxy-UDPG]
- activity at the P2Y14 receptor [2]: inactive

Structure (SMILES): O=c1ccn([C@@H]2O[C@H](COP(=O)(O)OP(=O)(O)O[C@H]3O[C@H](CO)[C@@H](O)[C@H](O)[C@H]3O)[C@@H](O)[C@H]2O)c(=S)[nH]1 [Compound 2, 2-thio-UDP-[1″]glucose]
- fold increase in P2Y14 potency ([2]; relative to 1): 7 fold
- activity at the human P2Y2 receptor (activation of PLC) [4]: inactive

Structure (SMILES): O=c1ccn([C@@H]2C[C@H](COP(=O)(O)OP(=O)(O)O[C@H]3O[C@H](CO)[C@@H](O)[C@H](O)[C@H]3O)[C@@H](O)[C@H]2O)c(=O)[nH]1 [Compound 29, Diphosphoric Acid 1″-α-D-[1″]Glucopyranosyl Ester 2-(carbocyclic uridin-5′-yl)ester]
- activation of the P2Y14 receptor, % of full activation [3]: < 20%

Structure (SMILES): O=c1ccn([C@@]23C[C@H]2[C@H](COP(=O)(O)OP(=O)(O)O[C@H]2O[C@H](CO)[C@@H](O)[C@H](O)[C@H]2O)[C@@H](O)[C@H]3O)c(=O)[nH]1 [Compound 27, Diphosphoric Acid 1″-α-D-[1″]Glucopyranosyl Ester 2-((S)-Methanocarba-uridin-5′-yl)ester]
- pEC50 [3]: < 5.00
- agonist activity at the P2Y14 receptor [3]: abolished agonist activity

Structure (SMILES): O=c1ccn([C@H]2[C@H](O)[C@H](O)[C@@]3(COP(=O)(O)OP(=O)(O)O[C@H]4O[C@H](CO)[C@@H](O)[C@H](O)[C@H]4O)C[C@H]23)c(=O)[nH]1 [Compound 28, Diphosphoric Acid 1″-α-D-[1″]Glucopyranosyl Ester 2-((N)-Methanocarba-uridin-5′-yl)ester]
- pEC50 [3]: < 5.00
- agonist activity at the P2Y14 receptor [3]: abolished agonist activity
